These results are taken from ChEMBL document CHEMBL1201862, “PubChem BioAssay data set” (2004).

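In this assay, cells in 96-well plates receive the compound at five concentrations for 48 hours. Endpoints are linearly interpolated between the surrounding concentrations. GI50 is the concentration that inhibits growth by half.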 The source made the active and inactive calls. Rule as the data show it: active = GI50 up to about 1.1 µM and inactive = higher.

Experiment in all cases: NCI anticancer screen, dose series, 48 h
For test [1], the system named is OVCAR-8.
In test [2] the test system is SNB-75.
The test system of test [3] is UACC-257.
Test [4] relates to SR.
In test [5] the test system is SK-OV-3.
The subject of test [6] is ACHN.
Test [7] deals with SN12C.
Test [8] concerns HT-29.
The test system of test [9] is UO-31.
In test [10] the test system is Malme-3M.
Test [11] relates to HOP-62.
In test [12] the test system is SW-620.
Test [13] concerns HCC 2998.
Test [14] concerns IGROV-1.
Test [15] concerns M14.
In test [16] the test system is NCI-H522.
For test [17], the system named is HCT-15.
In test [18] the test system is CAKI-1.

In the case of `CCOC(=O)C(/C(=N\NC(=O)OC)C(=O)Nc1cc(OC)ccc1OC)c1cnc2ccccc2n1` (configuration not stated), the GI50 in test [1], in [2], in test [3], in test [4], in [5] and in test [6] was > 100 µM (inactive) each time. For the same molecule, the GI50 in test [7], in test [8], in test [9], in test [10], in test [11] and in test [12] was > 100 µM (inactive) in each case. For the same molecule, the GI50 in [13] was > 100 µM (inactive); in [14], > 100 µM (inactive); in test [15], > 100 µM (inactive); in [16] it was > 100 µM (inactive); in test [17] it was > 100 µM; in test [18] it was > 100 µM (inactive).

Regarding `CCCCCCCCCOC(=S)NC`, the GI50 in test [1] is 18.8 µM (inactive); in test [2], 26.1 µM (inactive); in [5], 24.5 µM (inactive); in test [6] it was 19.3 µM (inactive); in test [7], 18.4 µM (inactive); in test [8] it was 20.6 µM (inactive). Further, the GI50 in test [9] is 11.2 µM (inactive); in test [10] it was 20.6 µM (inactive); in [12] it was 20.9 µM (inactive); in [13] it was 19.1 µM (inactive); in test [14], 24.2 µM (inactive); in test [15] it was 21.1 µM (inactive). The GI50 in test [16] was 14.7 µM (inactive); in test [17], 18.7 µM; in test [18] it was 20.7 µM (inactive).

Consider `NNC(=O)CCC(=O)Nc1ccc(Cl)cc1Cl`, for which the GI50 was > 100 µM (inactive) in test [1]; > 100 µM (inactive) in [2]; > 100 µM (inactive) in test [3]; 6.68 µM (inactive) in test [4]; > 100 µM (inactive) in test [5]; > 100 µM (inactive) in test [6]. The GI50 in [7], in test [8], in test [9], in [10], in test [11] and in [12] was > 100 µM (inactive) throughout. Besides, the GI50 was > 100 µM (inactive) in test [13]; > 100 µM (inactive) in test [14]; 45.1 µM (inactive) in test [15]; > 100 µM (inactive) in [16]; 66.2 µM in test [17]; > 100 µM (inactive) in [18].

On to `O=[N+]([O-])c1cccc(/C=N\NS(=O)(=O)c2ccc(Cl)cc2)c1O`, for which the GI50 is 79.4 µM (inactive) in test [1]; > 100 µM (inactive) in [2]; > 100 µM (inactive) in [3]; 18.7 µM (inactive) in [4]; > 100 µM (inactive) in [5]; 98.6 µM (inactive) in [6]. Moreover, the GI50 in [7] is > 100 µM (inactive); in test [8] it was > 100 µM (inactive); in test [9] it was 67.3 µM (inactive); in [10], > 100 µM (inactive); in test [11] it was > 100 µM (inactive); in [12], > 100 µM (inactive). The GI50 in test [13] was > 100 µM (inactive); in test [14] it was 49.4 µM (inactive); in [15] it was 90.8 µM (inactive); in test [16], 31.8 µM (inactive); in test [17] it was 52.5 µM; in test [18] it was > 100 µM (inactive).

On to `Cc1cc(Cl)ccc1NC(=O)C(=O)Cc1nc2ccc(C(=O)c3ccccc3)cc2nc1O`, for which the GI50 in [1] is > 100 µM (inactive); in test [2], > 100 µM (inactive); in test [3], > 100 µM (inactive); in [4] it was 7.4 µM (inactive); in test [5], > 100 µM (inactive); in [6], > 100 µM (inactive). Also, the GI50 in test [7] was > 100 µM (inactive); in [8], > 100 µM (inactive); in [9], 78.7 µM (inactive); in test [10], > 100 µM (inactive); in test [11], 92 µM (inactive); in test [12], 97.9 µM (inactive). Further, the GI50 in test [13] was > 100 µM (inactive); in [14], > 100 µM (inactive); in test [15], 96.6 µM (inactive); in [16] it was 39.4 µM (inactive); in test [17], > 100 µM; in [18], > 100 µM (inactive).

As to `COC(=O)N/N=C/c1oc(-c2cccc([N+](=O)[O-])c2)c(-c2cccc([N+](=O)[O-])c2)c1[N+](=O)[O-]`, the GI50 was > 100 µM (inactive) in test [1]; > 100 µM (inactive) in test [3]; 40.7 µM (inactive) in test [4]; > 100 µM (inactive) in test [5]; > 100 µM (inactive) in [6]; > 100 µM (inactive) in [7]. Moreover, the GI50 in [8], in test [9], in [11], in [12], in test [13] and in [14] was > 100 µM (inactive) each time. Besides, the figures for the GI50 in [15], in test [16] and in test [17] were > 100 µM (inactive), 60.8 µM (inactive) and > 100 µM, respectively.

For `O=C(Nc1cc(Cl)ccc1Cl)c1cc2cccc(Br)c2oc1=O`, the GI50 was 57.1 µM (inactive) in test [1]; 34.9 µM (inactive) in test [2]; > 100 µM (inactive) in test [3]; > 100 µM (inactive) in test [5]; > 100 µM (inactive) in [6]; > 100 µM (inactive) in test [7]. Further, the GI50 is > 100 µM (inactive) in test [8]; > 100 µM (inactive) in test [9]; > 100 µM (inactive) in test [10]; 47.2 µM (inactive) in test [11]; > 100 µM (inactive) in test [12]; > 100 µM (inactive) in [14]. For the same molecule, the GI50 in test [15] was > 100 µM (inactive); in [16] it was > 100 µM (inactive); in test [17] it was > 100 µM.

`CCCCNC(=S)OCCC(C)CCCC(C)C` (configuration not stated): the GI50 in test [1] was > 100 µM (inactive); in test [2], 35.3 µM (inactive); in test [3], > 100 µM (inactive); in test [4], > 100 µM (inactive); in test [5], > 100 µM (inactive); in test [6] it was > 100 µM (inactive). Further, the GI50 in test [7], in test [8], in test [9], in [10], in test [11] and in test [12] was > 100 µM (inactive) each time. Further, the GI50 in test [13] was > 100 µM (inactive); in [14], > 100 µM (inactive); in test [15] it was > 100 µM (inactive); in test [17], > 100 µM; in [18], > 100 µM (inactive).

Turning to `N#CCCN(c1ccc(/C=C2\N=C(Cc3ccccc3)OC2=O)cc1)S(=O)(=O)c1ccccc1`, the GI50 in [1], in test [2], in test [3], in test [5], in [6] and in [7] was > 100 µM (inactive) in each case. In addition, the GI50 in [8], in test [9], in test [10], in [11], in [12] and in test [13] was > 100 µM (inactive) throughout. Besides, the GI50 was > 100 µM (inactive) in test [14]; > 100 µM (inactive) in [15]; > 100 µM (inactive) in test [16]; > 100 µM in [17]; > 100 µM (inactive) in [18].

`O=C(CN1CCN(c2cccc(Cl)c2)CC1)N1CCc2c([nH]c3ccccc23)C1c1cccnc1` (configuration not stated): the GI50 was 19.4 µM (inactive) in test [1]; 7.62 µM (inactive) in test [2]; 5.41 µM (inactive) in [3]; 2.23 µM (inactive) in test [4]; > 100 µM (inactive) in test [5]; 8.87 µM (inactive) in test [6]. The GI50 was 9.57 µM (inactive) in test [7]; 4 µM (inactive) in test [8]; 4.1 µM (inactive) in test [9]; 14.7 µM (inactive) in test [11]; 7.14 µM (inactive) in test [12]; 5.24 µM (inactive) in test [13]. Besides, the GI50 in [14] is 22.4 µM (inactive); in test [15] it was 4.47 µM (inactive); in [16], 12.2 µM (inactive); in [17] it was 5.25 µM; in test [18] it was 12.8 µM (inactive).

As to `C/C(CC(=O)Nc1cccc([N+](=O)[O-])c1)=N\NC(=O)C[n+]1ccccc1`, the GI50 in test [1], in test [2], in [3], in [5], in [8] and in [9] was > 100 µM (inactive) in each case. Further, the GI50 in test [10], in test [11], in [12], in [13], in [14] and in test [15] was > 100 µM (inactive) each time. In addition, the GI50 in [16] was > 100 µM (inactive).

For the molecule `CC(=O)Nc1ccc(/C=C/C(=O)c2sc(-c3cccnc3)nc2C)cc1`, the GI50 in [1], in test [2], in test [3], in test [5], in test [6] and in test [7] was > 100 µM (inactive) in each case. Moreover, the GI50 in test [8], in [9], in test [10], in test [11], in test [12] and in test [13] was > 100 µM (inactive) each time. In addition, the GI50 was > 100 µM (inactive) in test [14], > 100 µM (inactive) in test [16], > 100 µM in test [17] and > 100 µM (inactive) in test [18].
